Measurements: publication PMC7101356, “Cross-site and cross-platform variability of automated patch clamp assessments of drug effects on human cardiac currents in recombinant cells” (Scientific Reports, 2020)

How the values were obtained:
[1] = biological target: hCav1.2 (Homo sapiens, UniProt Q13936); assay: Automated patch clamp, hCav1.2 current block; settings: for IC50: log IC50, half-maximal inhibitory concentration
[2] = biological target: hERG (Homo sapiens, UniProt Q12809); assay: Automated patch clamp, hERG current block (consensus step-ramp protocol); settings: for hERG K+ current inhibition, Mean, at maximal concentration: max conc [mol/L]: bep 3.00E-07, cpz 3.00E-06, cis 3.00E-07, dil 1.00E-04, dof 1.00E-07, mex 1.00E-04, ond 1.00E-05, qui 1.00E-05, ran 1.00E-04, sot 3.00E-04, ter 3.00E-07, ver 1.00E-06; for hERG K+ current inhibition, Mean, at minimal concentration: min conc [mol/L]: bep 1.00E-08, cpz 1.00E-07, cis 1.00E-09, dil 3.00E-06, dof 1.00E-09, mex 1.00E-06, ond 3.00E-07, qui 1.00E-07, ran 3.00E-06, sot 1.00E-05, ter 1.00E-08, ver 3.00E-08
Sequence of hERG (Q12809 whole entry): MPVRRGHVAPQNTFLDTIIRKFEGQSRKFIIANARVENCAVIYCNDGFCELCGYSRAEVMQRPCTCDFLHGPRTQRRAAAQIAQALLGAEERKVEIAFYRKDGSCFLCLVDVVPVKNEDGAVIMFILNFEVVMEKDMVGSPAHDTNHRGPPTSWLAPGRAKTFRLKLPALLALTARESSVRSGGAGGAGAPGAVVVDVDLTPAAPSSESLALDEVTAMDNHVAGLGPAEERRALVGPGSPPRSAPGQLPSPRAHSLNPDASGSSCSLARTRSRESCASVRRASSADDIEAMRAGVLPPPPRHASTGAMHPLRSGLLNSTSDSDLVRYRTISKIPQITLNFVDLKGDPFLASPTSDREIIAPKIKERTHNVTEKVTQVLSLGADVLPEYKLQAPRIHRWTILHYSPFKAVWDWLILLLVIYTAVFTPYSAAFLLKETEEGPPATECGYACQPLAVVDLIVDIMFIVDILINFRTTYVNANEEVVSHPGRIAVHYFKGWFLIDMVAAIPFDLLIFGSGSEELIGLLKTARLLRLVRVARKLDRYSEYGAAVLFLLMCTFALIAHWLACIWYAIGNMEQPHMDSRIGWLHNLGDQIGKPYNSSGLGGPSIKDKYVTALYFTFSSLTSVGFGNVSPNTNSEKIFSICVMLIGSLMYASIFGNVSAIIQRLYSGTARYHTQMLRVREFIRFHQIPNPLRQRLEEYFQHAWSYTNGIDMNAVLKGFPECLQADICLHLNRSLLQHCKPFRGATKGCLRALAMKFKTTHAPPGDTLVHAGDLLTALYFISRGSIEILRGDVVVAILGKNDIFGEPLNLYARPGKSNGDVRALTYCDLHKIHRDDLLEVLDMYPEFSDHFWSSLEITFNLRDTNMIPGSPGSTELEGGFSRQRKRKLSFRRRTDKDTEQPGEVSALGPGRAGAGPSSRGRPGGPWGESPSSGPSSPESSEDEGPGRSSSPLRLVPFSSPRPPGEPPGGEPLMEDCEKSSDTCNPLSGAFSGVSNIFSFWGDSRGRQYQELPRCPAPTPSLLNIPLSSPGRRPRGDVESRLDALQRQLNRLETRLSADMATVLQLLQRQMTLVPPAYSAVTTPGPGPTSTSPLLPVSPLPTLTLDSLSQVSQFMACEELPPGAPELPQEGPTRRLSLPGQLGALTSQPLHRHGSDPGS

[3] = s03_p2, HEK293, room temperature
[4] = s16_p3, HEK293, room temperature

Sequence of hCav1.2 (Q13936 whole entry): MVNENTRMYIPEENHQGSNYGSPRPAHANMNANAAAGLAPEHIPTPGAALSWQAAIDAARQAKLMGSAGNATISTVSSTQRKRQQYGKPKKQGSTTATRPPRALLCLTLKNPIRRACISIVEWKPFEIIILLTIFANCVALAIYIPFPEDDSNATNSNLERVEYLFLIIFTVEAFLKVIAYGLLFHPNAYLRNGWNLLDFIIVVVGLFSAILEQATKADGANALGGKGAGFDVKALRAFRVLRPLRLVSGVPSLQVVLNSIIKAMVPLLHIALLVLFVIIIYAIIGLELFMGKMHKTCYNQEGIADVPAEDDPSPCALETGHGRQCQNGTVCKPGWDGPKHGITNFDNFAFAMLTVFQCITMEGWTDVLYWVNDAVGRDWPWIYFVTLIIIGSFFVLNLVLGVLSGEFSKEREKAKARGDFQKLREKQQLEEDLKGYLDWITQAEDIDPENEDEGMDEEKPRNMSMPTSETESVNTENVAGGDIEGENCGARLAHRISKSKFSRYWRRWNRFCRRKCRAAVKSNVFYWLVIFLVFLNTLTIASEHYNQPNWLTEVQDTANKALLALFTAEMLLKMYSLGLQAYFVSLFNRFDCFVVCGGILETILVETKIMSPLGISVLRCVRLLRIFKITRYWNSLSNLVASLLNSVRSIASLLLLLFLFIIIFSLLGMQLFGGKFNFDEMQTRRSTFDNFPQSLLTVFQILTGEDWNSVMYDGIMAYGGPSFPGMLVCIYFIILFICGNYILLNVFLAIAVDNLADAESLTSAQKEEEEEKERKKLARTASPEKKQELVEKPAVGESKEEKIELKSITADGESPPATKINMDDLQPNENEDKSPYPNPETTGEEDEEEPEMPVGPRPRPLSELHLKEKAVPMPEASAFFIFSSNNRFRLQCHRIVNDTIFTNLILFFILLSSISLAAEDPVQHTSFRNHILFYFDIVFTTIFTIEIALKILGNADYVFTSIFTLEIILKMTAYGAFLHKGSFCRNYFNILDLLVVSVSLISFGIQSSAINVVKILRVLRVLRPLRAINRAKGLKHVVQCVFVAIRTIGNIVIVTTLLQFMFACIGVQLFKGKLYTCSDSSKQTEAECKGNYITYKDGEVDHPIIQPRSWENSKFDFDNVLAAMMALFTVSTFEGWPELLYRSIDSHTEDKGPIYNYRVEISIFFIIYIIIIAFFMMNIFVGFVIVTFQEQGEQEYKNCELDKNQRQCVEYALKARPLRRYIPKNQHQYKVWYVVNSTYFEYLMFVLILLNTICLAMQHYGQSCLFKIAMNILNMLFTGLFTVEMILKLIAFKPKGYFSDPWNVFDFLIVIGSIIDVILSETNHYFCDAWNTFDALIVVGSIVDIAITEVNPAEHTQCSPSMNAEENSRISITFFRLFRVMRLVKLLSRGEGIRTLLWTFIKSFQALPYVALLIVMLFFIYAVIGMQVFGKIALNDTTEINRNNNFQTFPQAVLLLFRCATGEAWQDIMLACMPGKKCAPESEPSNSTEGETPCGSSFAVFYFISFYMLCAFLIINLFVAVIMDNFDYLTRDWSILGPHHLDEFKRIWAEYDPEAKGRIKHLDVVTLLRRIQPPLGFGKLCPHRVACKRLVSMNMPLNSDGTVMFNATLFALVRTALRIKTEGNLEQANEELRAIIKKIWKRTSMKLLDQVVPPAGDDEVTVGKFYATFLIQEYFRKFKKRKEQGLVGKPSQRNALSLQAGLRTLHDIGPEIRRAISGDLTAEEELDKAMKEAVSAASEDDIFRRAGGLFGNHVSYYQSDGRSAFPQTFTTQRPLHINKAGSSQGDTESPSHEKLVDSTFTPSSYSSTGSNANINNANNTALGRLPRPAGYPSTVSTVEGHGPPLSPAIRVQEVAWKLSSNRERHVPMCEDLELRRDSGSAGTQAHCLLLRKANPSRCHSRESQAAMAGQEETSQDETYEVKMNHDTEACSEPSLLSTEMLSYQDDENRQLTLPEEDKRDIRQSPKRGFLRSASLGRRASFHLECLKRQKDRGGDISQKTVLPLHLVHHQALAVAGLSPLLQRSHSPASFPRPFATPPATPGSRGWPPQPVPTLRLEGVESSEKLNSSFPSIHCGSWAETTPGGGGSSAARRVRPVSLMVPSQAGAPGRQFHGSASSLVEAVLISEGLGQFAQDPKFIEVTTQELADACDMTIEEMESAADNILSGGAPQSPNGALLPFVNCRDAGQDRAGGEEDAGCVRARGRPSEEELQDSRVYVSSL
Sequence of hCav1.2 (Q08289 whole entry partner): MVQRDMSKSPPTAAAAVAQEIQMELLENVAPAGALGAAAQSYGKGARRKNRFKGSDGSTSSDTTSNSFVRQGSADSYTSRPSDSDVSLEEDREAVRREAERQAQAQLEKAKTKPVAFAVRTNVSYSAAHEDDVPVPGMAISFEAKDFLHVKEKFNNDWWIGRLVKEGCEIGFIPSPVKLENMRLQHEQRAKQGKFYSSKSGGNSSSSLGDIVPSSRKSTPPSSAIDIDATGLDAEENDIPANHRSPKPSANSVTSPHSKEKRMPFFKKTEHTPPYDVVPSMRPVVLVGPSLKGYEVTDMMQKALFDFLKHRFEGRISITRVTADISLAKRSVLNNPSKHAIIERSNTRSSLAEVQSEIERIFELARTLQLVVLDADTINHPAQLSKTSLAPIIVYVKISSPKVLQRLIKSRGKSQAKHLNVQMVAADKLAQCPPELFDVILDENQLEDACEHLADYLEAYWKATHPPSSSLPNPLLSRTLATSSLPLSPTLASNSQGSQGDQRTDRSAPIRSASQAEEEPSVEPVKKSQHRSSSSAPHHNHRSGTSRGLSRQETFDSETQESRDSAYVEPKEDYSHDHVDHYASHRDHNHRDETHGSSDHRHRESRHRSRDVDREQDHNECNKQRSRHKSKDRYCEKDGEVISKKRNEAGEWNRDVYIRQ
Sequence of hCav1.2 (P54289 25-956 partner limits assumed): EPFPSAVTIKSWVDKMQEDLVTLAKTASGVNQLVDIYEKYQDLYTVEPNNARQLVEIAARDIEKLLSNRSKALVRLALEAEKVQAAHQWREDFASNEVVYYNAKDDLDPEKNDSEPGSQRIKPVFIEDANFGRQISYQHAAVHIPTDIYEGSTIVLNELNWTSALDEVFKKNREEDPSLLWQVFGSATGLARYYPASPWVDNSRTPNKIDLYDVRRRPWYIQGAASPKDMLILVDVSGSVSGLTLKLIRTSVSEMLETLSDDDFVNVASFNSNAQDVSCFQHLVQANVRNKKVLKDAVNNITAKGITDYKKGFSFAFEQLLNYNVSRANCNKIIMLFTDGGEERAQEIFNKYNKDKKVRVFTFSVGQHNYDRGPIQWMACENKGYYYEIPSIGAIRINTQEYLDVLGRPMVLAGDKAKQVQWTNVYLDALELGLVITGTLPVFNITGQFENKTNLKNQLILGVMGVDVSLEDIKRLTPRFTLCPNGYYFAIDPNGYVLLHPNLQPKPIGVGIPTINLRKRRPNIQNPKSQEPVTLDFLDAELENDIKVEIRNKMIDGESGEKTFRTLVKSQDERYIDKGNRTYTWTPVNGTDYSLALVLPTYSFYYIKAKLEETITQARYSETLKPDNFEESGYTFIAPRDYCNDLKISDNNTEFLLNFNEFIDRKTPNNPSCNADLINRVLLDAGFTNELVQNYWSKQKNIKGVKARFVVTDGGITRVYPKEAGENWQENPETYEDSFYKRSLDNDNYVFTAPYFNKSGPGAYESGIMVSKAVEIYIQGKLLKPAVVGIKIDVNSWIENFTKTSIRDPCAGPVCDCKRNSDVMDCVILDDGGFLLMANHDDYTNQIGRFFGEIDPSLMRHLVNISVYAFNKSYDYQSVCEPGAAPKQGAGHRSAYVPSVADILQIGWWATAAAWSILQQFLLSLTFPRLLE
Sequence of hCav1.2 (P54289 957-1103 partner limits assumed): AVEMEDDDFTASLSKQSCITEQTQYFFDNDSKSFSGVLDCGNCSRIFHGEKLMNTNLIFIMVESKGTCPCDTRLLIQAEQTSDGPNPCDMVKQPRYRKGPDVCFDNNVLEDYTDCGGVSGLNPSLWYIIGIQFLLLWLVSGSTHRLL

For `Cc1nccn1CC1CCc2c(c3ccccc3n2C)C1=O` (stereo not shown) [ond, ondansetron], the IC50 ([1]; site s04_p3) was 155 µM, the IC50 ([1]; site s14_p1) was 28.8 µM and the IC50 ([1]; site s16_p3) was 6.61 µM. For the same compound, the “log IC50, half-maximal inhibitory concentration” value ([1]; site s01_p1) was “no inh”, the “Peak hCav1.2 Ca2+ current inhibition, Mean” value ([1]; site s01_p1, 3.00E-07 mol/L) was 3.2% and the “log IC50, half-maximal inhibitory concentration” value ([1]; site s02_p2, corrected for rundown) was “no inh”. The “Peak hCav1.2 Ca2+ current inhibition, Mean” value ([1]; site s02_p2, corrected for rundown, 3.00E-07 mol/L) was -6.3%, the “nH, Hill slope” value ([1]; site s04_p3) was 0.60 and the “Peak hCav1.2 Ca2+ current inhibition, Mean” value ([1]; site s04_p3, 1.00E-05 mol/L) was 16.1%. The “Peak hCav1.2 Ca2+ current inhibition, Mean” value ([1]; site s04_p3, 3.00E-07 mol/L) was 2.6%, the “log IC50, half-maximal inhibitory concentration” value ([1]; site s06_p4) was “no inh” and the “Peak hCav1.2 Ca2+ current inhibition, Mean” value ([1]; site s06_p4, 3.00E-07 mol/L) was 18.9%. The “log IC50, half-maximal inhibitory concentration” value ([1]; site s11_p1) was “no inh”, the “Peak hCav1.2 Ca2+ current inhibition, Mean” value ([1]; site s11_p1, 3.00E-07 mol/L) was 19.7% and the “nH, Hill slope” value ([1]; site s14_p1) was 2.00. For the same compound, the “Peak hCav1.2 Ca2+ current inhibition, Mean” value ([1]; site s14_p1, 3.00E-07 mol/L) was 4.0%, the “nH, Hill slope” value ([1]; site s16_p3) was 0.42 and the “Peak hCav1.2 Ca2+ current inhibition, Mean” value ([1]; site s16_p3, 3.00E-07 mol/L) was 20.6%. For the same compound, the “log IC50, half-maximal inhibitory concentration” value ([1]; site s18_p1) was “no inh”, the “Peak hCav1.2 Ca2+ current inhibition, Mean” value ([1]; site s18_p1, 3.00E-07 mol/L) was 16.9% and the inhibition at 1e-05 mol/L ([2]; human, recombinant cells expressing hERG, hERG K+ current inhibition, Mean, site_platform s07_p5, 1.00E-05 mol/L) was 101%. For the same compound, the inhibition at 3e-07 mol/L ([2]; human, recombinant cells expressing hERG, hERG K+ current inhibition, Mean, site_platform s07_p5, 3.00E-07 mol/L) was 17%, the inhibition at 4 min, 1e-05 mol/L ([2]; human, recombinant cells expressing hERG, hERG K+ current inhibition, Mean, site_platform s10_p3, 1.00E-05 mol/L) was 71.8% and the inhibition at 4 min, 3e-07 mol/L ([2]; human, recombinant cells expressing hERG, hERG K+ current inhibition, Mean, site_platform s10_p3, 3.00E-07 mol/L) was 9.7%. For the same compound, the inhibition at 7 min, 1e-05 mol/L ([2]; human, recombinant cells expressing hERG, hERG K+ current inhibition, Mean, site_platform s11_p1, 1.00E-05 mol/L) was 89.6%, the inhibition at 7 min, 3e-07 mol/L ([2]; human, recombinant cells expressing hERG, hERG K+ current inhibition, Mean, site_platform s11_p1, 3.00E-07 mol/L) was 11.6% and the inhibition at 1e-05 mol/L ([2]; human, recombinant cells expressing hERG, hERG K+ current inhibition, Mean, site_platform s12_p2, 1.00E-05 mol/L) was 91.6%. For the same compound, the inhibition at 3e-07 mol/L ([2]; human, recombinant cells expressing hERG, hERG K+ current inhibition, Mean, site_platform s12_p2, 3.00E-07 mol/L) was 19.3%, the inhibition at 1e-05 mol/L ([2]; human, recombinant cells expressing hERG, hERG K+ current inhibition, Mean, site_platform s13_p2, 1.00E-05 mol/L) was 90% and the inhibition at 3e-07 mol/L ([2]; human, recombinant cells expressing hERG, hERG K+ current inhibition, Mean, site_platform s13_p2, 3.00E-07 mol/L) was 11.4%. For the same compound, the inhibition at 7 min, 1e-05 mol/L ([2]; human, recombinant cells expressing hERG, hERG K+ current inhibition, Mean, site_platform s14_p1, 1.00E-05 mol/L) was 89.4%, the inhibition at 7 min, 3e-07 mol/L ([2]; human, recombinant cells expressing hERG, hERG K+ current inhibition, Mean, site_platform s14_p1, 3.00E-07 mol/L) was 58.7% and the “hERG K+ current nH, Hill slope” value ([2]; s01_p1, CHO, 23 °C) was 1.06. For the same compound, the “hERG K+ current inhibition, Mean, at maximal concentration” value ([2]; s01_p1, CHO, 23 °C) was 83.1%, the “hERG K+ current inhibition, Mean, at minimal concentration” value ([2]; s01_p1, CHO, 23 °C) was 8.8% and the “hERG K+ current nH, Hill slope” value ([2]; s02_p2, HEK293, 22–26 °C) was 1.07. For the same compound, the “hERG K+ current inhibition, Mean, at maximal concentration” value ([2]; s02_p2, HEK293, 22–26 °C) was 79.8%, the “hERG K+ current inhibition, Mean, at minimal concentration” value ([2]; s02_p2, HEK293, 22–26 °C) was 6.1% and the “hERG K+ current nH, Hill slope” value [2, 3] was 1.08. The “hERG K+ current inhibition, Mean, at maximal concentration” value [2, 3] was 99.9%, the “hERG K+ current inhibition, Mean, at minimal concentration” value [2, 3] was 37.2% and the “hERG K+ current nH, Hill slope” value ([2]; s04_p3, CHO, room temperature) was 0.97. The “hERG K+ current inhibition, Mean, at maximal concentration” value ([2]; s04_p3, CHO, room temperature) was 90.6%, the “hERG K+ current inhibition, Mean, at minimal concentration” value ([2]; s04_p3, CHO, room temperature) was 22.1% and the “hERG K+ current nH, Hill slope” value ([2]; s05_p4, HEK293, 22–24 °C) was 1.32. For the same compound, the “hERG K+ current inhibition, Mean, at maximal concentration” value ([2]; s05_p4, HEK293, 22–24 °C) was 93.2%, the “hERG K+ current inhibition, Mean, at minimal concentration” value ([2]; s05_p4, HEK293, 22–24 °C) was 9.6% and the “hERG K+ current nH, Hill slope” value ([2]; s15_p1, HEK293, 22–23 °C) was 0.88. For the same compound, the “hERG K+ current inhibition, Mean, at maximal concentration” value ([2]; s15_p1, HEK293, 22–23 °C) was 87.4%, the “hERG K+ current inhibition, Mean, at minimal concentration” value ([2]; s15_p1, HEK293, 22–23 °C) was 25.2% and the “hERG K+ current nH, Hill slope” value [2, 4] was 1.01. For the same compound, the “hERG K+ current inhibition, Mean, at maximal concentration” value [2, 4] was 84.1%, the “hERG K+ current inhibition, Mean, at minimal concentration” value [2, 4] was 11.9% and the “hERG K+ current nH, Hill slope” value ([2]; s18_p1, CHO, 35 °C) was 1.05. The “hERG K+ current inhibition, Mean, at maximal concentration” value ([2]; s18_p1, CHO, 35 °C) was 85.6%, the “hERG K+ current inhibition, Mean, at minimal concentration” value ([2]; s18_p1, CHO, 35 °C) was 12.7% and the “hERG K+ current nH, Hill slope” value ([2]; s19_p3, CHO, room temperature) was 1.01. The “hERG K+ current inhibition, Mean, at maximal concentration” value ([2]; s19_p3, CHO, room temperature) was 92.9%, the “hERG K+ current inhibition, Mean, at minimal concentration” value ([2]; s19_p3, CHO, room temperature) was 25.8% and the “nH (Hill slope), hERG K+ current inhibition” value ([2]; site_platform s07_p5) was 1.26. For the same compound, the “nH (Hill slope), hERG K+ current inhibition” value ([2]; site_platform s10_p3) was 0.98, the “nH (Hill slope), hERG K+ current inhibition” value ([2]; site_platform s11_p1) was 1.10 and the “nH (Hill slope), hERG K+ current inhibition” value ([2]; site_platform s12_p2) was 1.03. The “nH (Hill slope), hERG K+ current inhibition” value ([2]; site_platform s13_p2) was 1.19.
